Assay results taken from patent US20260250318A1, “COMPOSITIONS AND METHODS FOR CROSSING THE BLOOD BRAIN BARRIER” (VOYAGER THERAPEUTICS, INC., priority 2022, published 2026).

Test system: brain
Test: Maturation of TTM-001 capsid, NGS enrichment in brain of CD-1 Outbred mice
Format: in vivo
Details: NGS fold-enrichment of TTM-001 matured AAV capsid variants in the brain of CD-1 Outbred mice; intravenous 1.0×10^12 VG/dose; 14 days in life; RNA; relative to non-matured TTM-001 control
How it was run: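 Brain enrichment read by NGS after RNA extraction and RT-PCR, expressed as fold ratio over the matching parental capsid (TTM-001 or TTM-002). Libraries, mutated around loop IV positions 449/450–466, were injected intravenously (tail vein, 1.0×10^12 VG/dose) into three female CD-1 mice; brains harvested at 14 days.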

Sequence	Fold enrichment over TTM-001 [fold]
KTINGSGSPHSKNVRQQT	2.123
KTINGSGSPHSLSCNQQT	2.605
KTINGSGSPHRWAQNQQT	2.350
KTINGSGSPHMYAQNQQT	2.060
KTINGSGSPHTLFQNQQT	2.136
KTINGSGSPHSKPLRQQT	2.844
KTINGSGSPHSSCLNQQT	2.471
KTINGSGSPHSKAQLRRT	3.825
KTINGSGSPHVLFQNQQT	2.203
KTINGSGSPHSKAGCGQT	5.341
KTINGSGSPHSKAQPSKT	2.339
KTINGSGSPHLRRQNQQT	3.493
KTINGSGSPHSKLWSQQT	2.190
KTINLIRSPHSKAQNQQT	2.920
KTINGSGSPHSKRSMQQT	3.561
KTINGSGSPHLNWQNQQT	3.112
KTINGSTSPHRRAQNQQT (peptide inserted in AAV capsid)	3.089
KTINGSGSPHSKPTRQQT	3.201
KTINMLRSPHSKAQNQQT	2.000
KTINGSGSPHSKLNKQQT	3.181
KTINLIWSPHSKAQNQQT	2.035
KTINGSGSPHSRSRNQQT	3.784
KTINGSGSPHSRPRNQQT	2.164
KTINGSGSPHSKAQVKLT	2.564

Sequence	Fold enrichment over TTM-001 [fold]
KTINGSGSPHSKLWTQQT	2.140
KTINGSGSPHSKPRSQQT	2.235
KTINGMKSPHSKAQNQQT	2.413
KTINGSGSPHSKPWLQQT	2.138
KTINGSGSPHFLLQNQQT	2.758
KTINGSESPHDSAQNQQT	2.164
KTINGSGSPHPFLQNQQT	2.916
KTINGSGSPHSKAQNEVH	2.272
KTINLRFSPHSKAQNQQT	2.611
KTINGSVSPHFMAQNQQT (peptide inserted in AAV capsid)	2.287
KTINGSGSPHTWLQNQQT	2.397
KTINGSGSPHSKKVSQQT	2.088
KTINGRLSPHFKAQNQQT	2.097
KEVGGSGSPHSKAQNQQT	2.358
KTINGSGSPHCLSQNQQT	2.114
KTINGSGSPHSIWQNQQT	5.883
KTINGSGSPHLRFQNQQT	2.186
KTINGSGSPHSKALCRQT	2.048
KTINGSGSPHSLRHNQQT	2.980
KTINGSGSPHSKARIVQT	3.287
KTINGSPSPHRKAQNQQT	2.430
KTINGSGSPHSVLFNQQT	2.194
KTINGSGSPHSKAQVCLT	2.182
KPPTGSGSPHSKAQNQQT	2.270
